Test results published in the NIST ThermoML archive (doi:10.1021/je1003065).
Numbers after ± are expanded uncertainties.

Test: mn = molality of the nth substance listed, in mol/kg
Conditions: Liquid, Vibrating tube method

[Br-].[Li+] [lithium bromide] + CCO
Conditions | mass density [kg/m3]
273.09 K, 4590 kPa, m1 = 2.272 | 943.92 ± 1.9
273.13 K, 30024 kPa, m1 = 0.2335 | 841.53 ± 1.7
273.14 K, 5012 kPa, m1 = 0.2335 | 824.8 ± 1.7
273.14 K, 29954 kPa, m1 = 2.833 | 990.17 ± 2
273.14 K, 49926 kPa, m1 = 2.833 | 1001.06 ± 2
273.14 K, 80014 kPa, m1 = 0.2335 | 868.58 ± 1.8
273.15 K, 1023 kPa, m1 = 0.2335 | 821.76 ± 1.6
273.15 K, 1024 kPa, m1 = 0.9499 | 866.06 ± 1.7
273.15 K, 1024 kPa, m1 = 2.833 | 971.83 ± 1.9
273.15 K, 1537 kPa, m1 = 3.368 | 1000.06 ± 2
273.15 K, 2048 kPa, m1 = 1.462 | 896.66 ± 1.8
273.15 K, 5002 kPa, m1 = 2.833 | 974.56 ± 1.9
273.15 K, 5021 kPa, m1 = 0.9499 | 868.77 ± 1.7
273.15 K, 10002 kPa, m1 = 0.2335 | 828.53 ± 1.7
273.15 K, 10002 kPa, m1 = 0.9499 | 872.07 ± 1.8
273.15 K, 10177 kPa, m1 = 2.272 | 947.5 ± 1.9
273.15 K, 19956 kPa, m1 = 2.833 | 984.22 ± 2
273.15 K, 20031 kPa, m1 = 0.2335 | 835.19 ± 1.7
273.15 K, 20031 kPa, m1 = 0.9499 | 878.51 ± 1.8
273.15 K, 30045 kPa, m1 = 0.9499 | 884.65 ± 1.8
273.15 K, 39945 kPa, m1 = 0.2335 | 847.51 ± 1.7
273.15 K, 39974 kPa, m1 = 2.833 | 995.79 ± 2
273.15 K, 40015 kPa, m1 = 0.9499 | 890.49 ± 1.8
273.15 K, 49923 kPa, m1 = 0.2335 | 853.22 ± 1.7
273.15 K, 50027 kPa, m1 = 0.9499 | 896.06 ± 1.8
273.15 K, 59570 kPa, m1 = 2.272 | 975.51 ± 2
273.15 K, 60021 kPa, m1 = 2.833 | 1006.15 ± 2
273.15 K, 60029 kPa, m1 = 0.9499 | 901.35 ± 1.8
273.15 K, 69980 kPa, m1 = 2.272 | 980.49 ± 2
273.15 K, 70002 kPa, m1 = 0.9499 | 906.34 ± 1.8
273.15 K, 70003 kPa, m1 = 0.2335 | 863.78 ± 1.8
273.15 K, 70035 kPa, m1 = 2.833 | 1010.98 ± 2
273.15 K, 79857 kPa, m1 = 2.272 | 985.04 ± 2
273.15 K, 79954 kPa, m1 = 0.9499 | 911.03 ± 1.9
273.15 K, 89925 kPa, m1 = 2.272 | 989.55 ± 2
273.15 K, 89935 kPa, m1 = 0.9499 | 915.46 ± 1.9
273.15 K, 89956 kPa, m1 = 2.833 | 1020.12 ± 2.1
273.15 K, 90023 kPa, m1 = 0.2335 | 873.07 ± 1.8
273.15 K, 99945 kPa, m1 = 0.2335 | 877.21 ± 1.9
273.15 K, 99986 kPa, m1 = 0.9499 | 919.63 ± 1.9
273.15 K, 99986 kPa, m1 = 2.833 | 1024.57 ± 2.1
273.16 K, 5195 kPa, m1 = 1.462 | 898.75 ± 1.8
273.16 K, 10032 kPa, m1 = 2.833 | 977.92 ± 2
273.16 K, 20027 kPa, m1 = 3.368 | 1011.76 ± 2
273.16 K, 29980 kPa, m1 = 3.368 | 1017.69 ± 2
273.16 K, 39977 kPa, m1 = 3.368 | 1023.39 ± 2
273.16 K, 49994 kPa, m1 = 0.5972 | 875.26 ± 1.8
273.16 K, 59884 kPa, m1 = 0.5972 | 880.54 ± 1.8
273.16 K, 59985 kPa, m1 = 0.2335 | 858.67 ± 1.8
273.16 K, 69990 kPa, m1 = 0.5972 | 885.63 ± 1.8
273.16 K, 80061 kPa, m1 = 2.833 | 1015.64 ± 2
273.16 K, 100090 kPa, m1 = 2.272 | 994.02 ± 2
273.17 K, 1948 kPa, m1 = 2.272 | 941.72 ± 1.9
273.17 K, 9742 kPa, m1 = 1.462 | 901.73 ± 1.8
273.17 K, 10114 kPa, m1 = 3.368 | 1005.6 ± 2
273.17 K, 19964 kPa, m1 = 0.5972 | 857.46 ± 1.7
273.17 K, 20349 kPa, m1 = 2.272 | 953.97 ± 1.9
273.17 K, 29947 kPa, m1 = 2.272 | 959.72 ± 1.9
273.17 K, 29993 kPa, m1 = 0.5972 | 863.7 ± 1.7
273.17 K, 39918 kPa, m1 = 0.5972 | 869.58 ± 1.8
273.17 K, 49964 kPa, m1 = 2.272 | 970.63 ± 1.9
273.17 K, 49974 kPa, m1 = 3.368 | 1028.82 ± 2.1
273.17 K, 80091 kPa, m1 = 0.5972 | 890.43 ± 1.8
273.17 K, 89924 kPa, m1 = 3.368 | 1047.9 ± 2.1
273.17 K, 89993 kPa, m1 = 0.5972 | 894.84 ± 1.9
273.17 K, 99951 kPa, m1 = 3.368 | 1052.03 ± 2.1
273.18 K, 1306 kPa, m1 = 0.5972 | 845.06 ± 1.7
273.18 K, 4686 kPa, m1 = 0.5972 | 847.38 ± 1.7
273.18 K, 4965 kPa, m1 = 3.368 | 1002.3 ± 2
273.18 K, 9917 kPa, m1 = 0.5972 | 850.91 ± 1.7
273.18 K, 20115 kPa, m1 = 1.462 | 908.3 ± 1.8
273.18 K, 29966 kPa, m1 = 1.462 | 914.27 ± 1.8
273.18 K, 49922 kPa, m1 = 1.462 | 925.55 ± 1.9
273.18 K, 60091 kPa, m1 = 1.462 | 930.87 ± 1.9
273.18 K, 60277 kPa, m1 = 3.368 | 1034.14 ± 2.1
273.18 K, 69993 kPa, m1 = 1.462 | 935.78 ± 1.9
273.18 K, 69994 kPa, m1 = 3.368 | 1038.9 ± 2.1
273.18 K, 79725 kPa, m1 = 3.368 | 1043.43 ± 2.1
273.18 K, 80129 kPa, m1 = 1.462 | 940.52 ± 1.9
273.18 K, 89963 kPa, m1 = 1.462 | 944.86 ± 1.9
273.18 K, 100098 kPa, m1 = 0.5972 | 899.04 ± 1.9
273.19 K, 39973 kPa, m1 = 1.462 | 920.07 ± 1.9
273.19 K, 40359 kPa, m1 = 2.272 | 965.49 ± 1.9
273.2 K, 99708 kPa, m1 = 1.462 | 948.89 ± 1.9
293.12 K, 9790 kPa, m1 = 1.462 | 886.75 ± 1.8
293.13 K, 1999 kPa, m1 = 1.462 | 881.23 ± 1.8
293.13 K, 5005 kPa, m1 = 1.462 | 883.38 ± 1.8
293.13 K, 19962 kPa, m1 = 1.462 | 893.68 ± 1.8
293.13 K, 29997 kPa, m1 = 1.462 | 900.21 ± 1.8
293.13 K, 30014 kPa, m1 = 0.2335 | 827.08 ± 1.7
293.13 K, 40468 kPa, m1 = 1.462 | 906.69 ± 1.8
293.13 K, 49901 kPa, m1 = 1.462 | 912.25 ± 1.8
293.13 K, 59950 kPa, m1 = 3.368 | 1019.25 ± 2
293.14 K, 5014 kPa, m1 = 0.2335 | 809.13 ± 1.6
293.14 K, 10097 kPa, m1 = 3.368 | 989.9 ± 2
293.14 K, 19953 kPa, m1 = 2.833 | 969.14 ± 1.9
293.14 K, 49968 kPa, m1 = 2.833 | 986.92 ± 2
293.14 K, 49985 kPa, m1 = 0.2335 | 839.79 ± 1.7
293.14 K, 59817 kPa, m1 = 0.5972 | 867.48 ± 1.8
293.14 K, 60137 kPa, m1 = 1.462 | 917.97 ± 1.9
293.14 K, 69946 kPa, m1 = 3.368 | 1024.25 ± 2.1
293.14 K, 69979 kPa, m1 = 0.5972 | 872.97 ± 1.8
293.14 K, 69979 kPa, m1 = 1.462 | 923.18 ± 1.9
293.14 K, 79675 kPa, m1 = 0.5972 | 877.88 ± 1.8
293.15 K, 1003 kPa, m1 = 0.2335 | 805.64 ± 1.6
